Laboratory results published in the supplement of paper PMC10307832.

What was measured:
Assay in all cases: relative viability (nuclei count vs DMSO), 5 days (fraction); higher = more cells survive
Dovitinib + Navitoclax = compound: CN1CCN(c2ccc3nc(-c4c(N)c5c(F)cccc5[nH]c4=O)[nH]c3c2)CC1 [Dovitinib] + CC1(C)CCC(c2ccc(Cl)cc2)=C(CN2CCN(c3ccc(C(=O)NS(=O)(=O)c4ccc(N[C@H](CCN5CCOCC5)CSc5ccccc5)c(S(=O)(=O)C(F)(F)F)c4)cc3)CC2)C1 [Navitoclax] (partner 0.5 µM)
Procedure, shortened: (§1)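 Relative viability divides the nuclei count in treated wells by that in vehicle wells. Lung cancer cell lines were seeded in 1536-well plates, dosed by pin tool the next day, and fixed and stained after 5 days in one step with final 0.05% Triton X-100, 1% formaldehyde and 1 ug/ml Hoechst. Dosing was a single drug or a fixed anchor-drug dose plus five library-drug doses (not always all listed) in √10 steps, and values are medians of duplicate plates imaged at 4×.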

Dovitinib + Luminespib = compound: CN1CCN(c2ccc3nc(-c4c(N)c5c(F)cccc5[nH]c4=O)[nH]c3c2)CC1 [Dovitinib] + CCNC(=O)c1noc(-c2cc(C(C)C)c(O)cc2O)c1-c1ccc(CN2CCOCC2)cc1 [Luminespib] (partner 0.01 µM)
Procedure, shortened: as §1

Dovitinib + Foretinib = compound: CN1CCN(c2ccc3nc(-c4c(N)c5c(F)cccc5[nH]c4=O)[nH]c3c2)CC1 [Dovitinib] + COc1cc2c(Oc3ccc(NC(=O)C4(C(=O)Nc5ccc(F)cc5)CC4)cc3F)ccnc2cc1OCCCN1CCOCC1 [Foretinib] (partner 0.25 µM)
Procedure, shortened: as §1

Dovitinib + Linsitinib = compound: CN1CCN(c2ccc3nc(-c4c(N)c5c(F)cccc5[nH]c4=O)[nH]c3c2)CC1 [Dovitinib] + C[C@]1(O)C[C@@H](c2nc(-c3ccc4ccc(-c5ccccc5)nc4c3)c3c(N)nccn32)C1 [Linsitinib] (partner 1 µM)
Procedure, shortened: as §1

Cell Line | relative viability (Dovitinib + Navitoclax; first compound 0.02 µM) | relative viability (Dovitinib + Navitoclax; first compound 0.06325 µM) | relative viability (Dovitinib + Navitoclax; first compound 0.2 µM) | relative viability (Dovitinib + Navitoclax; first compound 0.6325 µM) | relative viability (Dovitinib + Navitoclax; first compound 2 µM) | relative viability (Dovitinib + Luminespib; first compound 0.02 µM) | relative viability (Dovitinib + Luminespib; first compound 0.06325 µM) | relative viability (Dovitinib + Luminespib; first compound 0.2 µM) | relative viability (Dovitinib + Luminespib; first compound 0.6325 µM) | relative viability (Dovitinib + Luminespib; first compound 2 µM) | relative viability (Dovitinib + Foretinib; first compound 0.02 µM) | relative viability (Dovitinib + Foretinib; first compound 0.06325 µM) | relative viability (Dovitinib + Foretinib; first compound 0.2 µM) | relative viability (Dovitinib + Foretinib; first compound 0.6325 µM) | relative viability (Dovitinib + Foretinib; first compound 2 µM) | relative viability (Dovitinib + Linsitinib; first compound 0.02 µM) | relative viability (Dovitinib + Linsitinib; first compound 0.06325 µM) | relative viability (Dovitinib + Linsitinib; first compound 0.2 µM) | relative viability (Dovitinib + Linsitinib; first compound 0.6325 µM) | relative viability (Dovitinib + Linsitinib; first compound 2 µM)
LU99A | 0.78 | 0.787 | 0.747 | 0.774 | 0.727 | 0.243 | 0.221 | 0.27 | 0.282 | 0.254 | 0.714 | 0.782 | 0.79 | 0.812 | 0.932 | 0.482 | 0.571 | 0.521 | 0.515 | 0.506
LXF-289 | 0.909 | 0.929 | 0.945 | 0.941 | 0.858 | 0.722 | 0.683 | 0.737 | 0.677 | 0.663 | 0.99 | 1.01 | 0.882 | 1.02 | 0.953 | 0.907 | 0.942 | 0.935 | 0.939 | 0.878
NCI-H23 | 0.83 | 0.759 | 0.769 | 0.908 | 0.764 | 0.194 | 0.219 | 0.201 | 0.229 | 0.24 | 0.899 | 0.913 | 1.09 | 0.962 | 0.983 | 0.546 | 0.664 | 0.623 | 0.57 | 0.506
NCI-H322M | 1.17 | 1.25 | 1.21 | 1.27 | 1.23 | 0.835 | 0.883 | 0.831 | 0.803 | 0.792 | 0.95 | 0.898 | 0.941 | 0.923 | 0.869 | 0.945 | 0.853 | 0.973 | 0.943 | 0.892
NCI-H441 | 0.665 | 0.54 | 0.911 | 0.572 | 0.775 | 0.351 | 0.382 | 0.286 | 0.32 | 0.342 | 0.832 | 1.08 | 0.774 | 1.11 | 1.05 | 0.512 | 0.537 | 0.541 | 0.599 | 0.499
NCI-H460 | 0.961 | 1.14 | 1.02 | 1.08 | 1.14 | 0.0302 | 0.034 | 0.0441 | 0.0303 | 0.0426 | 1 | 1.03 | 1.12 | 0.918 | 1.03 | 0.758 | 0.904 | 0.834 | 0.74 | 0.777
NCI-H520 | 1.17 | 1.21 | 1.09 | 1.03 | 0.905 | 0.218 | 0.219 | 0.192 | 0.201 | 0.212 | 0.698 | 0.894 | 0.818 | 0.733 | 0.698 | 0.832 | 0.964 | 0.986 | 0.868 | 1.07
NCI-H596 | 1.02 | 0.987 | 0.871 | 0.768 | 0.696 | 1.12 | 1.11 | 0.942 | 1.16 | 0.835 | 0.84 | 0.614 | 0.848 | 0.961 | 0.874 | 1.03 | 1.01 | 1.09 | 0.96 | 0.954
